{"source": "patent US20260240844A1", "about": "“INHIBITORS OF CHD1L AND USES THEREOF” (The Regents of the University of Colorado, a body corporate, priority 2023, published 2026)", "key": {"HCT116 tumor organoids": {"test_system": "HCT116 tumor organoids", "experiment": "Viability of isolated EMT phenotype HCT116 tumor organoids", "type": "cell-based", "conditions": "Homo sapiens, HCT-116, 72 h"}, "CRC patient samples": {"test_system": "CRC patient samples", "experiment": "Tumor growth inhibition index of CRC patient samples", "type": "in vivo", "description": "Analytical measurements include tumor volume by caliper and survival. […] Using this information, 8 patient samples with diverse genetic background mutations, stage of cancer, site of cancer (primary vs metastatic) were initially selected (Table 2)."}, "HCT116 Parental cells": {"test_system": "HCT116 Parental cells", "experiment": "HCT116 Parental cell viability, combination with chemotherapy", "type": "cell-based", "conditions": "Homo sapiens, HCT-116, HCT116 cells, read-out: IC50 5-FU"}, "PARP1 [1]": {"target": "T1, PARP1 (Homo sapiens, UniProt P09874)", "T1 sequence (P09874 whole entry)": "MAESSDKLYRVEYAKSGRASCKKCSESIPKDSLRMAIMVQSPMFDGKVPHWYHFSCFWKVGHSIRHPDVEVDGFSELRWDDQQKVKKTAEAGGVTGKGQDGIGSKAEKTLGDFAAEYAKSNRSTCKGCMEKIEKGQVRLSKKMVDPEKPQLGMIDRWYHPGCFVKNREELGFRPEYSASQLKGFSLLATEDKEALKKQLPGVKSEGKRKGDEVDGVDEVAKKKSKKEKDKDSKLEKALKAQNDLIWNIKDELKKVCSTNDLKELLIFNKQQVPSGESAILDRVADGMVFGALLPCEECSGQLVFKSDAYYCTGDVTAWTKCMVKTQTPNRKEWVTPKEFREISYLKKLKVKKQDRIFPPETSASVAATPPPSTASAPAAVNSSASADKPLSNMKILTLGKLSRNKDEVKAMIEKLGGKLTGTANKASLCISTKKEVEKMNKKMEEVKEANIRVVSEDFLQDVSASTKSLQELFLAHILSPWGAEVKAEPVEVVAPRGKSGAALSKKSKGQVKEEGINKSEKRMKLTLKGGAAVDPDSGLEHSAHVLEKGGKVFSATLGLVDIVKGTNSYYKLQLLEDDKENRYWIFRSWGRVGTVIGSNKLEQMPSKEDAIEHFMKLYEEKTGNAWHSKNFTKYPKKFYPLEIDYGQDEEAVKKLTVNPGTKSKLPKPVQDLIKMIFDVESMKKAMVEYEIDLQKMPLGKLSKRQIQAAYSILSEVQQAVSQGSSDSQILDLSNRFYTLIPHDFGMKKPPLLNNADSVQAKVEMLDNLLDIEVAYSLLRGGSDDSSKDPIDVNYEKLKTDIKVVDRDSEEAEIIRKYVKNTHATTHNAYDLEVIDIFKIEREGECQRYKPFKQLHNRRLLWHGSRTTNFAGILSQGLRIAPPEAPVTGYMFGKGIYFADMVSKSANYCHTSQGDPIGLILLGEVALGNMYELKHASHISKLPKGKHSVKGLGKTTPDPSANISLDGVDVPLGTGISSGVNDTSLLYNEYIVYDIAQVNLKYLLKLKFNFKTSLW", "experiment": "PARP1 enzymatic (colorimetric) assay", "method": "First, a 96 well plate was coated with histones. Next, the biotinylated NAD^+ substrate was incubated with an activated DNA template, the inhibitor to test and the PARP1/2 enzyme for 1 h at RT. After that, the sample plate was treated with streptavidin-RP for 30 min at RT, followed by addition of the horseradish peroxidase (HRP) substrate until the colorimetric signal was developed. The EnVision plate reader (PerkinElmer) was used to measure the absorbance at 450 nm and the results were plotted and analyzed using GraphPad Prism."}, "PARP1 [2]": {"target": "T1, PARP1", "experiment": "PARP1 trapping (in situ subcellular fractionation, immunofluorescence)", "method": "PARP1/2 and CHD1L trapping—PARP1, PARP2 and CHD1L trapping were assessed. SUM149PT cells were plated at a density of 20,000 cells per well into clear bottom black 96-well plates (PerkinElmer). […] After 4 h incubation, cell media was aspirated and cells were treated for 10 min at 4° C. with cold cytoskeleton (CSK) buffer (10 mM PIPES pH=6.8, 300 mM sucrose, 200 mM NaCl, 3 mM MgCl2) supplemented with 0.6% Triton X-100. […] PARP1 (anti-PARP1 antibody, 1:2000, O/N, 4° C.), PARP2 (anti-PARP2, 1:1000, O/N, 4° C.) and CHD1L (anti-CHD1L, 1:1000, O/N, 4° C.) primary antibodies were then added in antibody dilution buffer (2% BSA in PBS) and incubated O/N at 4° C.\nTo study the accumulation of bound PARP1/2 on chromatin, in situ subcellular fractioning of SUM149PT cells co-treated with 0.01% methyl methanesulfonate (MMS) and the drug of interest was used, followed by immunofluorescence. […] The cells were exposed to anti-CHD1L and anti-PARP1 fluorescent antibodies, and the cells were subsequently imaged."}, "[3]": {"test_system": "SUM149 and MDA-MB-231 cells", "experiment": "DDR biomarkers in breast cancer cells", "type": "cell-based", "conditions": "4 μM", "description": "Etoposide was used as a control to show upregulation of DDR pathway biomarkers."}, "[4]": {"test_system": "SW620 M-phenotype mouse xenografts", "experiment": "Irinotecan drug resistant SW620 M-phenotype mouse xenografts", "type": "in vivo"}, "[5]": {"test_system": "colon cancer mouse xenograft", "experiment": "Colon cancer mouse xenograft model", "type": "in vivo, mice", "procedure": "The tumor volume was monitored over 30 days, and the tumor volume was measured after 30 days. The tumor was extracted from the mice, and the dimensions of the tumor were measured to provide a tumor volume in mm^3.\nKey: PO=oral; IP=intraperitoneal; ANOVA significance: *: P<0.05; **: P<0.0003; ***: P<0.0001."}, "[6]": {"test_system": "γ-H2AX in SW620 or SUM149PT cells", "experiment": "DNA damage (γ-H2AX) immunofluorescence, Example 1", "type": "cell-based", "description": "The percentage of DNA damage for each single agent dose and combination was plotted on a contour map (FIG. 6A). Each shade on the contour map represents a range of % DNA damage where dark orange is 100% and white is 0% DNA damage."}}, "note": "Where two headings read alike, the source gives them in different places."}
{"smiles": "O=C(c1cc(Cc2n[nH]c(=O)c3ccccc23)ccc1F)N1CCN(C(=O)C2CC2)CC1", "note": "[olaparib]", "values": [{"measurement": "IC50", "setting": "HCT116 tumor organoids; combined with Compound 6, read-out: IC50 olaparib", "result": "~30", "unit": "µM"}, {"measurement": "IC50", "setting": "HCT116 tumor organoids; olaparib alone", "result": "~600", "unit": "µM"}]}
{"smiles": "O=c1[nH]cc(F)c(=O)[nH]1", "note": "[Compound 5-FU, 5-fluorouracil]", "values": [{"measurement": "5FU Response (tumor growth inhibition index)", "setting": "CRC patient samples; patient sample CRC001, Primary, KRAS", "result": 185.8, "unit": "%"}, {"measurement": "5FU Response (tumor growth inhibition index)", "setting": "CRC patient samples; patient sample CRC026, Metastatic", "result": 77.3, "unit": "%"}, {"measurement": "5FU Response (tumor growth inhibition index)", "setting": "CRC patient samples; patient sample CRC042, Primary, KRAS, TP53", "result": 107.8, "unit": "%"}, {"measurement": "5FU Response (tumor growth inhibition index)", "setting": "CRC patient samples; patient sample CRC102, Metastatic, KRAS", "result": 113.1, "unit": "%"}, {"measurement": "IC50", "setting": "HCT116 Parental cells; Compound 11 0 μM", "result": 95.7, "unit": "µM"}, {"measurement": "IC50", "setting": "HCT116 Parental cells; Compound 11 2.5 μM", "result": 192, "unit": "µM"}, {"measurement": "IC50", "setting": "HCT116 Parental cells; Compound 11 3 μM", "result": 63.4, "unit": "µM"}, {"measurement": "IC50", "setting": "HCT116 Parental cells; Compound 11 3.5 μM", "result": 43.2, "unit": "µM"}, {"measurement": "IC50", "setting": "HCT116 Parental cells; Compound 12 0 μM", "result": 103, "unit": "µM"}, {"measurement": "IC50", "setting": "HCT116 Parental cells; Compound 12 5 μM", "result": 34.6, "unit": "µM"}, {"measurement": "IC50", "setting": "HCT116 Parental cells; Compound 12 6 μM", "result": 11.5, "unit": "µM"}]}
{"smiles": "Cc1cc(Nc2ccc(NC(=O)Cc3cccs3)cc2)nc(N2CCCC2)n1", "note": "[Compound 6, N-(4-((6-methyl-2-(pyrrolidin-1-yl)pyrimidin-4-yl)amino)phenyl)-2-(thiophen-2-yl)acetamide]", "values": [{"measurement": "PARP1 enzyme activity", "setting": "PARP1 [1]", "result": "does not have any effect on PARP1/2 activity"}]}
{"smiles": "Cc1cc(Nc2ccc(NC(=O)Cc3cc(Br)cs3)cc2)nc(N2CCCC2)n1", "note": "[Compound 6.11, 2-(4-bromothiophen-2-yl)-N-(4-((6-methyl-2-(pyrrolidin-1-yl)pyrimidin-4-yl)amino)phenyl)acetamide]", "values": [{"measurement": "increase in PARP1 trapping", "setting": "PARP1 [2]; SUM149PT cells, 0.01% MMS, 4 h", "result": 10, "unit": "fold"}, {"measurement": "PARP1/2 trapping compared to olaparib alone", "setting": "PARP1 [2]; non-trapping doses of Compound 6.11 combined with olaparib", "result": "significant increase in PARP1/2 trapping"}, {"measurement": "amounts of γ-H2AX and 53BP1", "setting": "[3]", "result": "overall decreases in the amounts of γ-H2AX and 53BP1"}, {"measurement": "inhibition of tumor growth vs irinotecan alone", "setting": "[4]; Compound 6.11 5 mg/kg IP 1×/day + irinotecan 50 mg/kg 1×/week", "result": "significantly more effective at inhibiting tumor growth"}, {"measurement": "increase in mouse survival", "setting": "[4]; Compound 6.11 5 mg/kg IP 1×/day + irinotecan 50 mg/kg 1×/week vs irinotecan alone", "result": "about a month"}, {"measurement": "increase in mouse survival compared to irinotecan alone", "setting": "[4]; low doses of Compound 6.11 combined with irinotecan, drug resistant CRC nude mouse xenografts", "result": 30, "unit": "days"}, {"measurement": "decrease in tumor volume", "setting": "[5]; Compound 6.11 5 mg/kg daily IP + irinotecan 50 mg/kg 1×/week IP, after 20 days", "result": "approximately 50%"}, {"measurement": "metastatic tumor burden (bioluminescent imaging, % change total flux)", "setting": "[5]; Compound 6.11 100 mg/kg 5×/week oral + irinotecan 15 mg/kg 1×/week IP", "result": "~0"}, {"measurement": "survival", "setting": "[5]; combination of Compound 6.11 and irinotecan", "result": "improved survival rates"}, {"measurement": "mean synergy score (Bliss), DNA damage", "setting": "[6]; combined with 5FU", "result": 23}, {"measurement": "mean synergy score (Bliss), DNA damage", "setting": "[6]; combined with SN38", "result": 24}, {"measurement": "DNA damage (γ-H2AX) compared to vehicle", "setting": "[6]; single agent", "result": "no significant DNA damage"}]}
